Paper PMC7852560 (Neuropsychopharmacology, 2020)

Legend:
CB1R [1] = target: T1, CB1R (Homo sapiens, UniProt P21554); assay: cell-based; assay type: cell-based; conditions: hCB1R CHO cells, data not shown
Description: The cAMP BRET experiments were performed as previously described. Briefly, hCB1R HEK293 cells were transfected with 5 µg/10 cm dish of the CAMYEL biosensor using polyethylenimine. After 24 h, the cells were plated into white 96-well plates (PerkinElmer) at a density of 60,000 cells/well.
Cyclic AMP accumulation was measured using a DiscoverX HitHunter® cAMP Assay for Small Molecules (DiscoverX, Fremont, CA). hCB1R CHO cells were seeded at a density of 40,000 cells/well in 96-well white plates and grown overnight at 37 °C, 5% CO2 in a humidified incubator. […] Vehicle concentration was 1% DMSO, 0.1% BSA. Following agonist incubation, 15 µl of cAMP antibody reagent and 60 µl of working cAMP detection solution (containing 19 parts cAMP lysis buffer, 5 parts Substrate Reagent 1, 1 part Substrate Reagent 2 and 25 parts of cAMP Solution D) were added to all wells. Assay plates were incubated in the dark for 1 hr at room temperature, followed by addition of 60 µl cAMP solution A to all wells and incubation for 3 hr at room temperature in the dark. Plates were read using a GloMax Discover plate-reader (Promega, Madison, WI).

CB1R [2] = target: T1, CB1R; design: beta-galactosidase enzyme fragment (EFC; ProLink by own knowledge); method as in PMID 16113085, PMID 18029031; conditions: cited from earlier work
CB1R [3] = target: T1, CB1R; design: beta-galactosidase enzyme fragment (EFC; ProLink by own knowledge); method as in PMID 16113085, PMID 18029031; conditions: cited from earlier work; remark: listed apart in the source
Male C57Bl/6J mice = assay: Cannabinoid-induced tetrad; assay type: in vivo; conditions: 10 mg/kg i.p., 30 min prior
Description: Male C57Bl/6J mice (PD > 70) were tested on the cannabinoid-induced tetrad, as previously described.
(i.p.) before testing. The tetrad was performed (1) catalepsy, (2) locomotion, (3) temperature, and (4) analgesia. Catalepsy: time (s) spent immobile with front paws on a plastic rod (1.5cm diameter), at a height of 4.5-cm from the table, before adjusting abnormal posture (either front paws being removed from the bar, or back paws climbing onto bar). Locomotion: horizontal activity (cm) was immediately measured in an open field test, following catalepsy, for 15-min. in 1-min bins. Temperature: rectal temperature (°C) was measured immediately following open-field testing, using a thermometer with rectal probe (Labcorp, Fisher, Waltham, MA). Analgesia: latency (s) to withdraw tail from hot water bath (52 °C), to assess tail-flick antinociception, was completed immediately following temperature readings.

GluN1KD mice [4] = assay: Pre-pulse inhibition in GluN1KD mice; assay type: in vivo; conditions: ABM300 10 mg/kg, OLA 1 mg/kg i.p.
Description: Pre-Pulse Inhibition (PPI): PPI of the acoustic startle response was measured on day 3, via SR-LAB equipment and software from San Diego Instruments. Accelerometers were calibrated to 700±5 mV and output voltages were amplified and analyzed for voltage changes using SR Analysis (San Diego Instruments, San Diego, CA, USA), and exported as an excel file. Background white noise was maintained at 65dB. PPI was measured in a 30-min test with 80 randomized trials of: (1) 10 trials pulse alone (2) 10 trials pre-pulse alone (for each pre-pulse), (3) 10 trials pre-pulse plus pulse (for each pre-pulse), and (4) 10 trials no pulse. 5 pulse alone trials were performed before and after the 80 trials, totaling 90 trials per run. The pre-pulse (4dB, 8dB, or 16dB) was presented 100ms prior to the startle pulse […]. The inter-stimulus interval (ISI) was randomized between 5 and 20s. Experimental mice were placed in a cylindrical tube on a platform in a soundproof chamber. Mice were allowed to acclimatize in the chamber and to the background noise for 300s, followed by 5 consecutive pulse alone trials, then by 80 randomized trials (as described above) and then 5 consecutive pulse alone trials. Pre-pulse inhibition was measured as a decrease in the amplitude of startle response to a 100dB acoustic startle pulse, following each pre-pulse (4dB, 8dB and 16dB).

Male Sprague Dawley rats = assay: Conditioned avoidance response (CAR); assay type: in vivo; conditions: rats, ABM300 10 mg/kg, olanzapine 1 mg/kg i.p. daily
Description: Male Sprague Dawley rats (PD>63) were trained on a CAR protocol and responding following drug exposure was determined. […] Animals were trained to learn a house light (CS) as predictive of an avoidable 0.6mA scrambled foot shock (US). Each session consisted of 50 trials and animals avoided >70% of trials on the final acquisition session were tested for CAR during vehicle baseline, drug exposure, and re-emergence. In addition to CAR testing, both temperature and catalepsy were recorded in these animals (measure of potential CB1R agonism). Temperature: recorded on first day of drug exposure, prior to injection and 60-90-min. following drug exposure.

GluN1KD mice [5] = assay: Open-field test in GluN1KD mice; conditions: ABM300 10 mg/kg, OLA 1 mg/kg i.p., 30 min before test
C57Bl/6J mice = assay type: in vivo; conditions: 10 mg/kg i.p., 30 min before test, compared to vehicle
From the text: (i.p.) before testing. The EPM was composed of 4 opaque-white arms (2 opposite arms closed, 2 opposite arms open), arranged in a plus shape, with an open center. The dimensions were as follows; maze elevation (38.7cm), open arm (L:30.5 cm, W:5 cm, H:0 cm), closed arm (L:30.5 cm, W:5 cm, H:15.2 cm) and center (5 cm x 5 cm). The experiment mouse was placed in the center of the maze and allowed to freely explore the maze for 8-min (50lux), while being tracked with an overhead camera. Open and closed arm times were recorded and collected by Biobserve Viewer3 software. The percentage of time spent in the open arms as compared to closed arms and center time was calculated and expressed as a percent of time spent in the open or closed arms of the maze.

T1 sequence (P21554 whole entry): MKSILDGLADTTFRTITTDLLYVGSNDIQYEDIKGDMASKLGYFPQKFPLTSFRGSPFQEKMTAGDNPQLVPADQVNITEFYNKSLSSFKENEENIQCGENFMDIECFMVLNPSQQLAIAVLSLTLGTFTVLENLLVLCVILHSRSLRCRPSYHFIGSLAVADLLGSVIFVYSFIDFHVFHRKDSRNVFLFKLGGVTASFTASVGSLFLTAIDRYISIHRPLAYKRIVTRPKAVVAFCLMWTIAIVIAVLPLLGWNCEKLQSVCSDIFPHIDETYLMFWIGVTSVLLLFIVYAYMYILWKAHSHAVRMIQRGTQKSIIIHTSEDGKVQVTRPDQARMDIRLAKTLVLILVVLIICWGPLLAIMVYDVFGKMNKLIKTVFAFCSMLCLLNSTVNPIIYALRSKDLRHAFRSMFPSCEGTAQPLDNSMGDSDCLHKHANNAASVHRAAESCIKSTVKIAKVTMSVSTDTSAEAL

## CCCCCCC(C)(C)c1ccc([C@@H]2C[C@H](O)CC[C@H]2CCCO)c(O)c1 [CP55,940, reference compound]
CB1R [1]
  effect on forskolin-stimulated cAMP accumulation: inhibited

## CCc1c(C(=O)NCCc2ccc(N3CCCCC3)cc2)[nH]c2ccc(Cl)cc12 [Org275]
CB1R [2]
  CB1R agonist-mediated signaling: acts as an inhibitor
CB1R [3]
  Bmax of [3H] CB1R agonist binding: increases the Bmax

## CCCCCc1cc(O)c2c(c1)OC(C)(C)[C@@H]1CCC(C)=C[C@@H]21 [THC, Δ^9-tetrahydrocannabinol, reference compound]
Male C57Bl/6J mice
  tetrad: catalepsy-induced immobility time: produced effects
  tetrad: percent inhibition of locomotor activity (15 min): produced effects
  tetrad: rectal temperature: produced effects
  tetrad: tail withdrawal (% MPE): produced effects

## Cc1cc2c(s1)Nc1ccccc1N=C2N1CCN(C)CC1 [olanzapine, reference compound]
GluN1KD mice [4]
  acoustic startle response: did not respond
  sensorimotor gating deficits (PPI; 4, 8, 16 dB): did not respond
Male Sprague Dawley rats
  escape failures in CAR: neither ABM300 nor olanzapine affected escape failures
  escape responding during CAR: enhanced escape responding
Male Sprague Dawley rats; 30 min prior
  avoidance behavior in CAR: attenuated avoidance behavior
GluN1KD mice [5]
  exaggerated stereotypic activity: Effects of ABM300 are similar to those seen with olanzapine
  novelty-induced hyperactivity (distance traveled): Effects of ABM300 are similar to those seen with olanzapine
  rearing behavior (vertical exploration): Effects of ABM300 are similar to those seen with olanzapine

## Cc1c(C(=O)NN2CCCCC2)nn(-c2ccc(Cl)cc2Cl)c1-c1ccc(Cl)cc1 [rimonabant, reference compound]
C57Bl/6J mice
  time spent in the open arms (EPM): significantly reduced
